In ChEMBL document CHEMBL1141736, “DNA polymerase and topoisomerase II inhibitors from Psoralea corylifolia” (J Nat Prod, 1998):
Calls of active or inactive are those of the source. No cut-off for these calls is given here.

Assays:
Format in all cases: cell-based
[1] = target: DNA topoisomerase 2-alpha (Homo sapiens, UniProt P11388); experiment: Inhibition of DNA topoisomerase 2 in human HeLa cells by kinetoplast DNA decantation assay
CV-1 [2] = experiment: Inhibition of replicative DNA polymerase epsilon in SV40 virus infected african green monkey CV1 cells; details: Chlorocebus aethiops
CV-1 [3] = experiment: Inhibition of replicative DNA polymerase […] in SV40 virus infected african green monkey CV1 cells; details: Chlorocebus aethiops
CV-1 [4] = experiment: Inhibition of replicative DNA polymerase gamma in SV40 virus infected african green monkey CV1 cells; details: Chlorocebus aethiops

DNA topoisomerase 2-alpha, sequence (P11388 whole entry): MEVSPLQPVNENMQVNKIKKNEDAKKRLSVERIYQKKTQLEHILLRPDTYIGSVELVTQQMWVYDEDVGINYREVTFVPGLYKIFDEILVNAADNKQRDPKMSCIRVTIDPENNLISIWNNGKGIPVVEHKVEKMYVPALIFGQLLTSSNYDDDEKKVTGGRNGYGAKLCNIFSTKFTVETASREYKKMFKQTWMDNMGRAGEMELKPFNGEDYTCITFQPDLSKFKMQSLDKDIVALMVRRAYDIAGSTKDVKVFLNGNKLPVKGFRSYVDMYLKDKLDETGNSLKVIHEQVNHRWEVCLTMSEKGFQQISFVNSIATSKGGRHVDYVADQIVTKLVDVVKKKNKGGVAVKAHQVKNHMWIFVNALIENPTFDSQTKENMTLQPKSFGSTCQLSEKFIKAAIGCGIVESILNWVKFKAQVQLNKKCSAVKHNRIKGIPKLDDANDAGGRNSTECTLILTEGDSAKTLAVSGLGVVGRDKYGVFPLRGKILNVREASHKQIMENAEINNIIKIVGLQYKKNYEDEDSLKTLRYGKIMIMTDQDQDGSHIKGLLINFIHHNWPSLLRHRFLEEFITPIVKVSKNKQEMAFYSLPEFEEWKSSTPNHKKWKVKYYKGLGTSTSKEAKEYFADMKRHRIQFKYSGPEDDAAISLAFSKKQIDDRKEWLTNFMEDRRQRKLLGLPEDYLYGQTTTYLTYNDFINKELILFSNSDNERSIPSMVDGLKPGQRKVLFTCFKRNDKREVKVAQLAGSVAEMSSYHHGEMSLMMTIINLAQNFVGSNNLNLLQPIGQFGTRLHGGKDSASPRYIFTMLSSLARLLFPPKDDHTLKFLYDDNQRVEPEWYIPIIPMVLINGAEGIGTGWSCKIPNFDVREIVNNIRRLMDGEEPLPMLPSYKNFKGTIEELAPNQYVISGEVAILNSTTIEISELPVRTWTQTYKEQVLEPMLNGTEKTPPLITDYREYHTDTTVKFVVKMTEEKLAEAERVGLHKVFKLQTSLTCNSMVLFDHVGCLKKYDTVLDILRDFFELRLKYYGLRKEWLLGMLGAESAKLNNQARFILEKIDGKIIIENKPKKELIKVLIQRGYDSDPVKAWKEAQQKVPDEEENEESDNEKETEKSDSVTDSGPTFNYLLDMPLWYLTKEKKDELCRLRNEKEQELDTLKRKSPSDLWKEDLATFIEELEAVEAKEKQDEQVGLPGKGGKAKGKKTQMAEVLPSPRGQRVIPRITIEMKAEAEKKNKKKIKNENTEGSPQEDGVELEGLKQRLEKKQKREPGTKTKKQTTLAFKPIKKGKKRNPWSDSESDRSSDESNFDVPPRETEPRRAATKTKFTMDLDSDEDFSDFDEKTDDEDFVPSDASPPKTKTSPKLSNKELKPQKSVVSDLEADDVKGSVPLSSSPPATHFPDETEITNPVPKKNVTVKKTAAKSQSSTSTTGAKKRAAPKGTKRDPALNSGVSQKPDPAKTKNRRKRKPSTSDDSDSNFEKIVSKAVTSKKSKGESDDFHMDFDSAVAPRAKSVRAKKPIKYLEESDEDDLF

How did the Activity [1] turn out when `CC(C)=CCc1cc(-c2coc3cc(O)ccc3c2=O)ccc1O` was run?
The Activity was “inactive”.

With `C=C[C@@](C)(/C=C/c1ccc(O)cc1)CCC=C(C)C` as the compound, how does the Activity (CV-1 [2]) read?
Its Activity is “Active”.

And the Activity (CV-1 [3])?
The Activity was “inactive”.

And the Activity (CV-1 [4])?
Its Activity is “inactive”.

How did the Activity [1] turn out when `O=c1ccc2cc3ccoc3cc2o1` was run?
Its Activity is “inactive”.

`O=c1ccc2c(ccc3ccoc32)o1` [BAKUCHICIN] was tested. Which IC50 [1] did it give?
Its IC50 is 404 µM.
